Target: T1, CCR(9) (Homo sapiens, UniProt P51686)
T1 construct: MOLT-4 cells were collected by centrifugation at 400×g at room temperature, then suspended at 50 million/ml in human serum; host or cells: MOLT-4
T1 sequence (P51686 1-369): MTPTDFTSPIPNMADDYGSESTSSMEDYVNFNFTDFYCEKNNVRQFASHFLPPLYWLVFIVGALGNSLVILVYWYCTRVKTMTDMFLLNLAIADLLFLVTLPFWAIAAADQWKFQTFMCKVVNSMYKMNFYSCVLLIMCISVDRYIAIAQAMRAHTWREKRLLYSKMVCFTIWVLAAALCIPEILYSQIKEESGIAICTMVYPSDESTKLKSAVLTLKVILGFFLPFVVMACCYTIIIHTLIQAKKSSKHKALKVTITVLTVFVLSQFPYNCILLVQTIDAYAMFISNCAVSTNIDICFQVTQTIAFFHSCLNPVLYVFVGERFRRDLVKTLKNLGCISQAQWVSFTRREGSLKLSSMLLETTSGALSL
Assay: Serum chemotaxis assay (MOLT-4 cells, TECK-induced migration, ChemoTX)
Format: cell-based
Settings: MOLT-4 cells in human serum, migration to recombinant human TECK, 90 minutes at 37° C.
Method: MOLT-4 cells were obtained from the American Type Culture Collection (Manassas, VA) and cultured in RPMI tissue culture medium supplemented with 10% fetal calf serum (FCS) in a humidified 5% CO2 incubator at 37° C. Recombinant human chemokine proteins TECK was obtained from R&D Systems (Minneapolis, MN). ChemoTX™ chemotaxis microchambers were purchased from Neuro Probe (Gaithersburg, MD). CyQUANT™ cell proliferation kits were purchased from Molecular Probes (Eugene, Oregon). Calcium indicator dye Fluo-4 AM was purchased from Molecular Devices (Mountain View, CA).
A serum chemotaxis assay was used to determine the efficacy of potential receptor antagonists at blocking the migration mediated through chemokine receptors, such as CCR(9). This assay was performed using the ChemoTX® microchamber system with a 5-μm pore-sized polycarbonate membrane. MOLT-4 cells were collected by centrifugation at 400×g at room temperature, then suspended at 50 million/ml in human serum, containing 50 mM HEPES (final pH of 7.2). The compound being tested or an equivalent volume of its solvent (DMSO) was then added to the cell/serum mixture at a final DMSO concentration of 0.125% (v/v), and this mixture was then incubated together at 37° C. for one hour. Separately, recombinant human TECK was diluted with chemotaxis buffer (HBSS+0.1% BSA), generally spanning a range from 0.1 nM to 500 nM, after which 29 μl of diluted chemokine was placed in the lower wells of the ChemoTX® plate. The 5-μm (pore size) polycarbonate membrane was placed onto the plate, and 20 μL of the cell/compound mixture was transferred onto each well of the membrane. The plates were incubated at 37° C. for 90 minutes, after which the polycarbonate membranes were removed and 5 μl of the DNA-intercalating agent CyQUANT (Invitrogen, Carlsbad, CA) was added to the lower wells. The amount of fluorescence, corresponding to the number of migrated cells, was measured using a Spectrafluor Plus plate reader (TECAN, San Jose, CA).
The A2 values were calculated from the following equation, comparing the efficacy of the test compound with that of the DMSO-only control at equi-active chemokine levels: Log(A2)=log[drug(M)]−log[(A′/A)−1] where A reflects the potency of the agonist in the absence of antagonist and A′ reflects the potency of the agonist in the presence of antagonist at a given concentration of drug ([drug(M)]). In Vivo Efficacy Models for Human IBD

| Chemotaxis A2 | Structure (SMILES) |
| --- | --- |
| +++ (100 nM > A2) | Cn1nnn(Cc2ccc(N3C(=O)[C@@](C)(c4ccc5c(c4)CCC(C)(C)O5)c4cc(Cl)ccc43)cc2)c1=O [(S)-5-chloro-3-(2,2-dimethylchroman-6-yl)-3-methyl-1-(4-((4-methyl-5-oxo-4,5-dihydro-1H-tetrazol-1-yl)methyl)phenyl)indolin-2-one] |
| +++ (100 nM > A2) | CC1(C)CCc2cc([C@]3(C)C(=O)N(c4ccc(Cn5nn[nH]c5=O)cc4)c4ccc(Cl)cc43)ccc2O1 [(S)-5-chloro-3-(2,2-dimethylchroman-6-yl)-3-methyl-1-(4-((5-oxo-4,5-dihydro-1H-tetrazol-1-yl)methyl)phenyl)indolin-2-one] |

From patent US12139475B2, “2-oxindole compounds” (CHEMOCENTRYX, INC., priority 2016, dated 2024)
